IC50 data for two compounds are collected here from patent US11192900B2, “Substituted 1,6-dihydropyridinones and 1,2-dihydroisoquinolinones as bet inhibitors” (NUVATION BIO INC., priority 2018, dated 2021).

Each structure is given as a SMILES string.

Test [1] has as its system IEC-6 rat intestinal epithelial cell line. As to the kind of experiment: IEC-6 cell viability, Protocol B (toxicity to non-cancerous cells). It is filed as cell-based. Conditions: Rattus norvegicus; IEC-6, 4000 cells per well, 48 hrs. How it is done:
The effects of test compounds were also studied in the IEC-6 rat intestinal epithelial cell line to assess potential toxicity to non-cancerous cells. The cells were harvested during the logarithmic growth period and counted. In Protocol A, cells were seeded at a count of 3000 cells per well/100 μl in a 96-well plate. After seeding, cells were incubated at 37° C., 5% CO2 for 24 hr. Cells were treated with test compounds at 8 concentrations within a desired concentration range (e.g. 5 nM-10 μM) for generation of dose response curves by preparing serial dilutions of the test compound in DMSO which were further diluted with culture medium and then added to each well. The plate was further incubated for another 96 hrs in humidified incubator at 37° C. and 5% CO2. The assay was terminated by addition of resazurin (# R7017, Sigma). The plate was incubated for 4 hr at 37° C., 5% CO2 and fluorescence was measured using excitation and emission wavelengths of 535 and 590 nm, respectively. Cell viability data were plotted using GraphPad Prism (GraphPad Software, Inc., San Diego, Calif.). In addition, a nonlinear regression model with a sigmoidal dose response and variable slope within GraphPad Prism was used to calculate the IC50 value of individual test compounds. Protocol B was the same as Protocol A except that cells were seeded at a count of 4000 cells per well/100 μl in a 96-well plate, and the incubation with test compound was for 48 hrs instead of 96 hrs.

The next test addresses BRD4-1 (Homo sapiens (Human), UniProt O60885). As to the kind of experiment: Bromodomain and Extraterminal Domain (BET) Binding Assay. The note with it: Table 3; read-out: BRD4-1 IC50. In short, it runs like this: (§1)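 AlphaScreen displacement of biotinylated H4 (1-21) K5/8/12/16Ac peptide, in 50 mM HEPES pH 7.5, 100 mM NaCl, 1 mg/ml BSA, 0.05% CHAPS, 0.5% DMSO. Protein-compound preincubation 30 min RT, then ligand 30 min, donor then acceptor beads 60 min dark. Inhibition versus plate controls; IC50 from 10-point titrations.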

The next test addresses BRD4-2 (Homo sapiens (Human), UniProt O60885). Described as above. The note with it: Table 3; read-out: BRD4-2 IC50. The method, boiled down: as §1
For test [2], the system named is MV-4-11 human acute myeloid leukemia cell line. As to the kind of experiment: Second cell viability assay in MV-4-11 (Cell Titer-Glo). It is filed as cell-based. The note with it: Homo sapiens; MV4-11, Cell Titer-Glo, 72 hrs; read-out: Cell Viability IC50 in MV4-11 cells. The method, then:
The effects of test compounds were studied in a second cell viability assay in the MV-4-11 human acute myeloid leukemia cell line. The cells were harvested during the logarithmic growth period and counted. Cells were seeded at a count of 15000 cells per well/100 μl. After seeding, cells were incubated at 37° C., 5% CO2 for 1 hr. Cells were treated with test compounds at 8 concentrations within a desired concentration range (e.g. 5 nM-[…]) for generation of dose response curves by preparing serial dilutions of the test compound in DMSO which were further diluted with culture medium and then added to each well. The plate was further incubated for another 72 hrs in a humidified incubator at 37° C. and 5% CO2. The assay was terminated by addition of Cell Titer-Glo reagent (Promega, Madison, Wis.) at ¼ the volume of total medium per well. Contents were mixed, the plate was incubated for 10 min at room temperature and luminescence was measured. Cell viability data were plotted using GraphPad Prism (GraphPad Software, Inc., San Diego, Calif.). In addition, a nonlinear regression model with a sigmoidal dose response and variable slope within GraphPad Prism was used to calculate the IC50 value of individual test compounds.

Test [3] has as its system 22Rv1 human prostate carcinoma cell line. As to the kind of experiment: Cell viability assay (resazurin). The format is cell-based. The note with it: 22Rv1, resazurin, 72 hrs. The method, then: The effects of test compounds were also studied in the 22Rv1 human prostate carcinoma and MDA-MB-231 human breast adenocarcinoma cell lines. The cells were harvested during the logarithmic growth period and counted. Cells were seeded at a count of 3000 cells (22Rv1) or 5000 cells (MDA-MB-231) per well/100 μl in a 96-well plate. After seeding, cells were incubated at 37° C., 5% CO2 for 24 hr. Cells were treated with test compounds at 8 concentrations within a desired concentration range (e.g. 5 nM-10 μM) for generation of dose response curves by preparing serial dilutions of the test compound in DMSO which were further diluted with culture medium and then added to each well. The plate was further incubated for another 72 hrs (22Rv1) or 96 hrs (MDA-MB-231) in humidified incubator at 37° C. and 5% CO2. The assay was terminated by addition of resazurin (# R7017, Sigma). The plate was incubated for 4 hr at 37° C., 5% CO2 and fluorescence was measured using excitation and emission wavelengths of 535 and 590 nm, respectively. Cell viability data were plotted using GraphPad Prism (GraphPad Software, Inc., San Diego, Calif.). In addition, a nonlinear regression model with a sigmoidal dose response and variable slope within GraphPad Prism was used to calculate the IC50 value of individual test compounds.

Turning to `CCS(=O)(=O)Nc1ccc(Oc2c(C)cc(F)cc2C)c(-n2cc(C)c(=O)c3ccccc32)c1` [Compound 570, N-(4-(4-fluoro-2,6-dimethylphenoxy)-3-(3-methyl-4-oxoquinolin-1(4H)-yl)phenyl)ethanesulfonamide], the IC50 was 2860 nM in test [1]; 1370 nM on BRD4-1; 11 nM at BRD4-2; 526 nM in test [2]; 1270 nM in test [3].

Regarding `CC(=O)Nc1ccc(Oc2c(C)cc(F)cc2C)c(-n2cc(C)c(=O)c3ccccc32)c1` [Compound 710, N-(4-(4-fluoro-2,6-dimethylphenoxy)-3-(3-methyl-4-oxoquinolin-1(4H)-yl)phenyl)acetamide], the IC50 is 7550 nM in test [1]; 8150 nM at BRD4-1; 292 nM on BRD4-2; 2460 nM in test [2]; 6660 nM in test [3].

The IC50 is the midpoint of a concentration-inhibition curve.
